What was measured:
Assay in all cases: relative viability (nuclei count vs DMSO), 5 days (fraction); higher = more cells survive
[1] = compound: NS(=O)(=O)OC[C@@H]1C[C@@H](n2ccc3c(N[C@H]4CCc5ccccc54)ncnc32)C[C@@H]1O [MLN4924] + Cc1nc(NC(=O)N2CCC[C@H]2C(N)=O)sc1-c1ccnc(C(C)(C)C(F)(F)F)c1 [Alpelisib] (partner 2 µM)
Summary of the method: (§1)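 A single step with final 0.05% Triton X-100, 1% formaldehyde and 1 ug/ml Hoechst fixed the cells and stained nuclei 5 days after treatment. Lung cancer cell lines in 1536-well plates had been treated by pin tool the day after seeding with one drug alone or a fixed anchor-drug dose plus five library-drug doses (not always all listed) in √10 steps, and nuclei were counted on 4× images. Relative viability is the ratio of nuclei in treated wells to nuclei in vehicle wells, taken as the median of duplicate plates.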

[2] = compound: NS(=O)(=O)OC[C@@H]1C[C@@H](n2ccc3c(N[C@H]4CCc5ccccc54)ncnc32)C[C@@H]1O [MLN4924] + COc1cccc2cc(-c3nc([C@H]4CC[C@H](C(=O)O)CC4)n4ncnc(N)c34)[nH]c12 [OSI-027] (partner 0.5 µM)
Summary of the method: as §1

[3] = compound: NS(=O)(=O)OC[C@@H]1C[C@@H](n2ccc3c(N[C@H]4CCc5ccccc54)ncnc32)C[C@@H]1O [MLN4924] + C[C@@H](Oc1cc(-c2cnn(C3CCNCC3)c2)cnc1N)c1c(Cl)ccc(F)c1Cl [Crizotinib] (partner 1 µM)
Summary of the method: as §1

[4] = compound: NS(=O)(=O)OC[C@@H]1C[C@@H](n2ccc3c(N[C@H]4CCc5ccccc54)ncnc32)C[C@@H]1O [MLN4924] + COc1cc2c(Oc3ccc(NC(=O)C4(C(=O)Nc5ccc(F)cc5)CC4)cc3F)ccnc2cc1OCCCN1CCOCC1 [Foretinib] (partner 0.25 µM)
Summary of the method: as §1

With NCI-H1651 the relative viability ([1]; first compound 0.04 µM) was 1.11, the relative viability ([1]; first compound 0.1265 µM) was 0.961 and the relative viability ([1]; first compound 0.4 µM) was 0.793. It also gave a relative viability ([1]; first compound 1.265 µM) of 0.362, a relative viability ([1]; first compound 4 µM) of 0.168 and a relative viability ([2]; first compound 0.04 µM) of 0.694. It also gave a relative viability ([2]; first compound 0.1265 µM) of 0.828, a relative viability ([2]; first compound 0.4 µM) of 0.866 and a relative viability ([2]; first compound 1.265 µM) of 0.398. For the same cell line, the relative viability ([2]; first compound 4 µM) was 0.161, the relative viability ([3]; first compound 0.04 µM) was 0.913 and the relative viability ([3]; first compound 0.1265 µM) was 0.85. It also gave a relative viability ([3]; first compound 0.4 µM) of 0.76, a relative viability ([3]; first compound 1.265 µM) of 0.357 and a relative viability ([3]; first compound 4 µM) of 0.167. The relative viability ([4]; first compound 0.04 µM) was 0.74, the relative viability ([4]; first compound 0.1265 µM) was 0.754 and the relative viability ([4]; first compound 0.4 µM) was 0.656. For the same cell line, the relative viability ([4]; first compound 1.265 µM) was 0.436 and the relative viability ([4]; first compound 4 µM) was 0.173.
In the case of NCI-H1666, the relative viability ([1]; first compound 0.04 µM) is reported as 1.18, the relative viability ([1]; first compound 0.1265 µM) is reported as 0.832 and the relative viability ([1]; first compound 0.4 µM) is reported as 0.432. For the same cell line, the relative viability ([1]; first compound 1.265 µM) was 0.148, the relative viability ([1]; first compound 4 µM) was 0.205 and the relative viability ([2]; first compound 0.04 µM) was 0.862. The relative viability ([2]; first compound 0.1265 µM) was 0.892, the relative viability ([2]; first compound 0.4 µM) was 0.711 and the relative viability ([2]; first compound 1.265 µM) was 0.351. For the same cell line, the relative viability ([2]; first compound 4 µM) was 0.325, the relative viability ([3]; first compound 0.04 µM) was 1.18 and the relative viability ([3]; first compound 0.1265 µM) was 0.669. It also gave a relative viability ([3]; first compound 0.4 µM) of 0.306, a relative viability ([3]; first compound 1.265 µM) of 0.25 and a relative viability ([3]; first compound 4 µM) of 0.236. The relative viability ([4]; first compound 0.04 µM) was 1.02, the relative viability ([4]; first compound 0.1265 µM) was 0.696 and the relative viability ([4]; first compound 0.4 µM) was 0.541. It also gave a relative viability ([4]; first compound 1.265 µM) of 0.304 and a relative viability ([4]; first compound 4 µM) of 0.346.
Cell Line NCI-H1734 has a relative viability ([1]; first compound 0.04 µM) of 0.947, a relative viability ([1]; first compound 0.1265 µM) of 0.95 and a relative viability ([1]; first compound 0.4 µM) of 0.246. It also gave a relative viability ([1]; first compound 1.265 µM) of 0.139, a relative viability ([1]; first compound 4 µM) of 0.118 and a relative viability ([2]; first compound 0.04 µM) of 0.498. For the same cell line, the relative viability ([2]; first compound 0.1265 µM) was 0.832, the relative viability ([2]; first compound 0.4 µM) was 0.304 and the relative viability ([2]; first compound 1.265 µM) was 0.124. It also gave a relative viability ([2]; first compound 4 µM) of 0.142, a relative viability ([3]; first compound 0.04 µM) of 0.688 and a relative viability ([3]; first compound 0.1265 µM) of 0.622. It also gave a relative viability ([3]; first compound 0.4 µM) of 0.305, a relative viability ([3]; first compound 1.265 µM) of 0.121 and a relative viability ([3]; first compound 4 µM) of 0.131. The relative viability ([4]; first compound 0.04 µM) was 0.938, the relative viability ([4]; first compound 0.1265 µM) was 0.866 and the relative viability ([4]; first compound 0.4 µM) was 0.241. For the same cell line, the relative viability ([4]; first compound 1.265 µM) was 0.145 and the relative viability ([4]; first compound 4 µM) was 0.134.
NCI-H1755 gave a relative viability ([1]; first compound 0.04 µM) of 0.835, a relative viability ([1]; first compound 0.1265 µM) of 0.638 and a relative viability ([1]; first compound 0.4 µM) of 0.475. It also gave a relative viability ([1]; first compound 1.265 µM) of 0.172, a relative viability ([1]; first compound 4 µM) of 0.145 and a relative viability ([2]; first compound 0.04 µM) of 0.681. It also gave a relative viability ([2]; first compound 0.1265 µM) of 0.518, a relative viability ([2]; first compound 0.4 µM) of 0.4 and a relative viability ([2]; first compound 1.265 µM) of 0.207. It also gave a relative viability ([2]; first compound 4 µM) of 0.208, a relative viability ([3]; first compound 0.04 µM) of 0.798 and a relative viability ([3]; first compound 0.1265 µM) of 0.761. The relative viability ([3]; first compound 0.4 µM) was 0.52, the relative viability ([3]; first compound 1.265 µM) was 0.181 and the relative viability ([3]; first compound 4 µM) was 0.154. The relative viability ([4]; first compound 0.04 µM) was 0.979, the relative viability ([4]; first compound 0.1265 µM) was 0.804 and the relative viability ([4]; first compound 0.4 µM) was 0.421. The relative viability ([4]; first compound 1.265 µM) was 0.243 and the relative viability ([4]; first compound 4 µM) was 0.184.
With NCI-H1915 the relative viability ([1]; first compound 0.04 µM) was 1.03, the relative viability ([1]; first compound 0.1265 µM) was 0.865 and the relative viability ([1]; first compound 0.4 µM) was 0.892. For the same cell line, the relative viability ([1]; first compound 1.265 µM) was 0.216, the relative viability ([1]; first compound 4 µM) was 0.17 and the relative viability ([2]; first compound 0.04 µM) was 0.567. It also gave a relative viability ([2]; first compound 0.1265 µM) of 0.544, a relative viability ([2]; first compound 0.4 µM) of 0.452 and a relative viability ([2]; first compound 1.265 µM) of 0.213. It also gave a relative viability ([2]; first compound 4 µM) of 0.205, a relative viability ([3]; first compound 0.04 µM) of 0.862 and a relative viability ([3]; first compound 0.1265 µM) of 0.751. For the same cell line, the relative viability ([3]; first compound 0.4 µM) was 0.844, the relative viability ([3]; first compound 1.265 µM) was 0.19 and the relative viability ([3]; first compound 4 µM) was 0.15. The relative viability ([4]; first compound 0.04 µM) was 1.07, the relative viability ([4]; first compound 0.1265 µM) was 0.929 and the relative viability ([4]; first compound 0.4 µM) was 0.906. For the same cell line, the relative viability ([4]; first compound 1.265 µM) was 0.314 and the relative viability ([4]; first compound 4 µM) was 0.232.
NCI-H1944 gave a relative viability ([1]; first compound 0.04 µM) of 1.02, a relative viability ([1]; first compound 0.1265 µM) of 1.02 and a relative viability ([1]; first compound 0.4 µM) of 1.04. It also gave a relative viability ([1]; first compound 1.265 µM) of 0.23, a relative viability ([1]; first compound 4 µM) of 0.188 and a relative viability ([2]; first compound 0.04 µM) of 0.502. It also gave a relative viability ([2]; first compound 0.1265 µM) of 0.453, a relative viability ([2]; first compound 0.4 µM) of 0.313 and a relative viability ([2]; first compound 1.265 µM) of 0.161. For the same cell line, the relative viability ([2]; first compound 4 µM) was 0.185, the relative viability ([3]; first compound 0.04 µM) was 1.06 and the relative viability ([3]; first compound 0.1265 µM) was 0.842. For the same cell line, the relative viability ([3]; first compound 0.4 µM) was 0.649, the relative viability ([3]; first compound 1.265 µM) was 0.179 and the relative viability ([3]; first compound 4 µM) was 0.167. For the same cell line, the relative viability ([4]; first compound 0.04 µM) was 0.771, the relative viability ([4]; first compound 0.1265 µM) was 0.58 and the relative viability ([4]; first compound 0.4 µM) was 0.301. It also gave a relative viability ([4]; first compound 1.265 µM) of 0.182 and a relative viability ([4]; first compound 4 µM) of 0.161.
Work on NCI-H1975 yielded a relative viability ([1]; first compound 0.04 µM) of 0.694, a relative viability ([1]; first compound 0.1265 µM) of 1.11 and a relative viability ([1]; first compound 0.4 µM) of 1.26. For the same cell line, the relative viability ([1]; first compound 1.265 µM) was 0.339, the relative viability ([1]; first compound 4 µM) was 0.21 and the relative viability ([2]; first compound 0.04 µM) was 0.704. For the same cell line, the relative viability ([2]; first compound 0.1265 µM) was 0.934, the relative viability ([2]; first compound 0.4 µM) was 1 and the relative viability ([2]; first compound 1.265 µM) was 0.618. It also gave a relative viability ([2]; first compound 4 µM) of 0.261, a relative viability ([3]; first compound 0.04 µM) of 0.876 and a relative viability ([3]; first compound 0.1265 µM) of 1.11. The relative viability ([3]; first compound 0.4 µM) was 1.17, the relative viability ([3]; first compound 1.265 µM) was 0.484 and the relative viability ([3]; first compound 4 µM) was 0.22. The relative viability ([4]; first compound 0.04 µM) was 0.962, the relative viability ([4]; first compound 0.1265 µM) was 1.08 and the relative viability ([4]; first compound 0.4 µM) was 1.27. It also gave a relative viability ([4]; first compound 1.265 µM) of 0.488 and a relative viability ([4]; first compound 4 µM) of 0.207.
Cell Line NCI-H1993 has a relative viability ([1]; first compound 0.04 µM) of 0.808, a relative viability ([1]; first compound 0.1265 µM) of 0.555 and a relative viability ([1]; first compound 0.4 µM) of 0.596. The relative viability ([1]; first compound 1.265 µM) was 0.569, the relative viability ([1]; first compound 4 µM) was 0.541 and the relative viability ([2]; first compound 0.04 µM) was 0.549. It also gave a relative viability ([2]; first compound 0.1265 µM) of 0.523, a relative viability ([2]; first compound 0.4 µM) of 0.532 and a relative viability ([2]; first compound 1.265 µM) of 0.488. For the same cell line, the relative viability ([2]; first compound 4 µM) was 0.52, the relative viability ([3]; first compound 0.04 µM) was 1.02 and the relative viability ([3]; first compound 0.1265 µM) was 0.678. For the same cell line, the relative viability ([3]; first compound 0.4 µM) was 0.626, the relative viability ([3]; first compound 1.265 µM) was 0.447 and the relative viability ([3]; first compound 4 µM) was 0.622. It also gave a relative viability ([4]; first compound 0.04 µM) of 0.624, a relative viability ([4]; first compound 0.1265 µM) of 0.59 and a relative viability ([4]; first compound 0.4 µM) of 0.517. For the same cell line, the relative viability ([4]; first compound 1.265 µM) was 0.553 and the relative viability ([4]; first compound 4 µM) was 0.602.

From the supplement of paper PMC10307832
